Earlier results, collected in US20120277197A1, “TIGECYCLINE FORMULATIONS” (WYETH, priority 2008, published 2012).

Conditions: cited from earlier work; for activity retained after frozen storage: after 14-23 days of frozen storage

| Compound | activity retained after frozen storage | other results |
| --- | --- | --- |
| CC1(C)S[C@@H]2[C@H](NC(=O)[C@H](N)c3ccc(O)cc3)C(=O)N2[C@H]1C(=O)O [amoxycillin sodium] |  | stability on freezing solutions (in normal saline or in glucose): markedly reduced stability |
| CC1(C)S[C@@H]2[C@H](NC(=O)C(C(=O)O)c3ccccc3)C(=O)N2[C@H]1C(=O)O (some centres unmarked) [carbenicillin] | retained essentially all of their activity |  |
| CC(=O)OCC1=C(C(=O)O)N2C(=O)[C@@H](NC(=O)Cc3cccs3)[C@H]2SC1 [cephalothin] | retained essentially all of their activity |  |
| C[C@@H](O)[C@H]1C(=O)N2C(C(=O)O)=C(S[C@@H]3CN[C@H](C(=O)Nc4cccc(C(=O)O)c4)C3)[C@H](C)[C@H]12 [ertapenem] |  | stability of solutions frozen at −20° C. (frozen at −20° C.): extreme variability in stability |
| penicillin | retained essentially all of their activity |  |
